Data set [1] in a line: POP concentration in lipids estimated from concentrations measured in prostheses. It counts as in vivo, human. Conditions: estimated from silicone prosthesis concentrations, silicone density of 1.0 and Klip-sil values. As to the method:
The representativeness and suitability of POP concentrations measured in explanted silicone prostheses can be evaluated through comparison with literature data on POP levels measured in breast milk or blood serum from Norwegian women. Using seal oil lipid-to-silicone partition coefficients, Klip-sil for PCBs and DDTs, estimates of POP concentrations in lipids of participants of the present invention were calculated. This approach assumes that the influence of the type of silicone and of lipids on lipid-silicone partition coefficients is minor.

The conditions of data set [2]: seal lipids, taken from Jahnke et al. (2008); cited from earlier work.
The conditions of data set [3]: mean, Norwegian women (n = 20) age 25-59, Thomsen et al. (2007); cited from earlier work.
For data set [4] the following is noted: milk from Norwegian women (n = 70), Thomsen et al. (2011); cited from earlier work.
The nature of data set [5]: Contaminant masses in explanted silicone breast prostheses (acetone extraction, GC-MS). It counts as in vivo, human. An excerpt: Silicone prostheses were obtained following breast implant surgery during a period spanning from July 2010 to January 2012. Reasons for explanation ranged from severe capsular contracture to a wish for a change in prosthesis size.
Prostheses were collected during surgical explanation from patients and wrapped individually in clean aluminium foil and stored in labelled plastic bags.
As soon as possible after, samples were stored in a freezer. Samples were then transported on ice to the laboratory and stored at −20° C. until analysis. For this proof-of-concept study, 9 prostheses were extracted and analysed. […] Two prostheses were duplicates and their analysis aimed to investigate the reproducibility of the analytical steps as well as of the representativeness of the sampling (samples 2, 6, and 9 in Table 1). All prostheses were made of medical silicone gel enclosed in an outer silicone shell filled with gel with various degree of cohesiveness. Differences between prostheses from various producers include volume, type of silicone material, surface texture and thickness of the outer shell and cohesive degree of the filling gel. Prostheses were tinted and tinting from light yellow to orange appeared (from visual inspection only) dependent on exposure time. […]
Silicone prosthesis extraction were performed in batches of 10-12 samples and included a blank prosthesis (volume of 200-450 cm^3), a spiked prosthesis to assess extraction efficiency and a solvent blank to evaluate potential contamination during extraction and extract clean-up. Extraction of the whole prostheses was undertaken in pre-baked 2 L beakers kept in the dark to prevent photo degradation. Samples were brought to room temperature and the surface was rinsed with ultrapure water and dried with a clean tissue. Connective tissue capsule attached to the surface of prostheses were removed. Samples were extracted by soaking in 1 L of acetone for 24 hours. Acetone was chosen for its low capacity to swell the silicone matrix and because of the ease with which it can volatilise. Recovery standards for organochlorines, PCBs and PBDEs (including for BDE-209) were added to the acetone. It was expected that 24 hours is sufficient for chemicals (present in either phases) to partition between the solvent phase and the silicone prosthesis. The acetone was replaced by another 1 L of acetone and samples were extracted for a further 24 hours. The two volumes of acetone were combined and reduced under a gentle stream of nitrogen. Prostheses were weighed before and after solvent extraction to determine the total amount of silicone oils and other substances removed from the matrix during solvent extraction. A second set of internal standards was used to evaluate possible losses during the sample clean-up step. The solvent was changed to isohexane and sample clean-up consisted of repeated sulphuric acid treatment until no colouring of the extract could be observed. Extract were then passed through a silica-filled solid phase extraction column and eluted with dichloromethane or isohexane. Extracts were reduced to an adequate volume before analysis.
Analytes were separated on a 30 m-long DB-5MS column (0.25 mm i.d. and 0.25 μm film thickness, Agilent JW Scientific, Santa Clara, USA) following 1 μL pulsed splitless injection (pulse pressure 20 psi for 1.2 min, injector temperature of 300° C.). The helium gas flow was set to 1.2 mL min^−1 and the GC oven temperature programme consisted of a step at 60° C. (held for 2 min) before an increase to 250° C. (at the rate 7° C. min^−1) and a final increase to 310° C. (at the rate of 15° C. min^−1) with this temperature held constant for a further 5 min. Ion source, quadrupole and transfer line temperatures were set to 230, 150 and 280° C., respectively. Quantification was performed using the relative response of surrogate internal standards (CB-30, CB-53 and CB-204) and 7-point calibration curves. […]

Where [6] appears, read: Sample 2, duplicate explanted prostheses analysed in the same batch.

Structures are written as SMILES. Marks after values point to notes of the source that are not given here.

Turning to `Clc1cc(Cl)c(-c2ccc(Cl)c(Cl)c2Cl)cc1Cl` [CB-138], the “Estimated Clipid” value in data set [1] is 27 ng/g. The “Klip-sil (lipid-silicone partition coefficient)” value (“Klip-sil” below) in data set [2] was 34.0 g/g. Also, in data set [3], the “Measured Cserum” value is recorded as 20 ng g^−1 lipid. Also, the “Measured Cmilk (median with range in brackets)” value (from here on “Measured Cmilk”) in data set [4] is reported as 16 (8-30)^f ng g^−1 lipid. Besides, in data set [5] (setting [6]), the “Prosthesis contaminant mass, Mean” value was determined as 123 ng sample^−1.
As for `Clc1ccc(-c2ccc(Cl)c(Cl)c2Cl)cc1Cl` [CB-105], the “Estimated Clipid” value in data set [1] is 1.5 ng/g. The “Klip-sil” value in data set [2] is 35.4 g/g. For the same molecule, the “Measured Cmilk” value in data set [4] was 1.8 (0.89-3.2)^f ng g^−1 lipid. Moreover, the “Prosthesis contaminant mass, Mean” value in data set [5] (setting [6]) was determined as 11 ng sample^−1.
As to `Brc1ccc(Oc2ccc(Br)c(Br)c2)cc1Br` [BDE-77], the “Prosthesis contaminant mass, Mean” value in data set [5] (setting [6]) is 0.8 ng sample^−1.
In the case of `Clc1ccc(C(c2ccccc2Cl)C(Cl)(Cl)Cl)cc1` (centres unmarked) [o,p′-DDT], in data set [1], the “Estimated Clipid” value was 0.8 ng/g. For the same molecule, the “Klip-sil” value in data set [2] is 21.3 g/g.
Regarding `Brc1c(Br)c(Br)c(Oc2c(Br)c(Br)c(Br)c(Br)c2Br)c(Br)c1Br` [BDE-209], in data set [5] (setting [6]), the “Prosthesis contaminant mass, Mean” value worked out at 6.5 ng sample^−1.
Regarding `Clc1c(Cl)c(Cl)c(Cl)c(Cl)c1Cl` [HCB, hexachlorobenzene], the “Estimated Clipid” value in data set [1] is 10.9 ng/g. Further, the “Prosthesis contaminant mass, Mean” value in data set [5] (setting [6]) is 181 ng sample^−1.
With `Clc1ccc(Cl)c(-c2cc(Cl)c(Cl)cc2Cl)c1` [CB-101], the “Estimated Clipid” value in data set [1] is 0.5 ng/g. In data set [2], the “Klip-sil” value is 26.3 g/g. Moreover, the “Measured Cserum” value in data set [3] is 5.8 ng g^−1 lipid. In data set [4], the “Measured Cmilk” value was 6.4 (1.8-36)^f ng g^−1 lipid. In data set [5] (setting [6]), the “Prosthesis contaminant mass, Mean” value worked out at 7.6 ng sample^−1.
Consider `Clc1ccc(-c2cc(Cl)c(Cl)cc2Cl)cc1Cl` [CB-118], for which, in data set [1], the “Estimated Clipid” value was 7.5 ng/g. The “Klip-sil” value in data set [2] was 35.2 g/g. In addition, the “Measured Cserum” value in data set [3] is given as 8.0 ng g^−1 lipid. The “Measured Cmilk” value in data set [4] was 9.3 (4.0-15)^f ng g^−1 lipid. The “Prosthesis contaminant mass, Mean” value in data set [5] (setting [6]) came out at 52 ng sample^−1.
`Clc1ccc(C(c2ccc(Cl)cc2)C(Cl)(Cl)Cl)cc1` [p,p′-DDT]: in data set [1], the “Estimated Clipid” value is 5.7 ng/g. Further, the “Klip-sil” value in data set [2] was 50.7 g/g. Moreover, the “Prosthesis contaminant mass, Mean” value in data set [5] (setting [6]) was 38 ng sample^−1.
Consider `Clc1cc(Cl)c(Cl)c(Cl)c1Cl` [PeCB, pentachlorobenzene], for which the “Prosthesis contaminant mass, Mean” value in data set [5] (setting [6]) stood at 5.6 ng sample^−1.
Same read-out and setting: with `Brc1cc(Br)c(Oc2cc(Br)c(Br)cc2Br)cc1Br` [BDE-153] the figure was 3.7 ng sample^−1.
Regarding `Clc1cc(Cl)c(-c2cc(Cl)c(Cl)cc2Cl)cc1Cl` [CB-153], in data set [1], the “Estimated Clipid” value is 62 ng/g. Also, in data set [2], the “Klip-sil” value is 38.1 g/g. In addition, the “Measured Cserum” value in data set [3] is on record as 43 ng g^−1 lipid. Also, the “Measured Cmilk” value in data set [4] is given as 38 (20-68) ng g^−1 lipid. Besides, in data set [5] (setting [6]), the “Prosthesis contaminant mass, Mean” value is 252 ng sample^−1.
As to `ClC(Cl)=C(Cl)c1c(Cl)c(Cl)c(Cl)c(Cl)c1Cl` [OCS, octachlorostyrene], the “Prosthesis contaminant mass, Mean” value in data set [5] (human, in vivo) is listed as 3.5 ng sample^−1.
Consider `Clc1cc(Cl)c(-c2cc(Cl)c(Cl)c(Cl)c2Cl)cc1Cl` [CB-180], for which the “Estimated Clipid” value in data set [1] is 4.2 ng/g. Also, the “Klip-sil” value in data set [2] was 49.4 g/g. For the same molecule, the “Measured Cserum” value in data set [3] was 34 ng g^−1 lipid. Further, in data set [4], the “Measured Cmilk” value is listed as 17 (8.5-32)^f ng g^−1 lipid. Also, the “Prosthesis contaminant mass, Mean” value in data set [5] (setting [6]) is listed as 9.3 ng sample^−1.
`ClC(Cl)=C(c1ccc(Cl)cc1)c1ccc(Cl)cc1` [p,p′-DDE]: the “Prosthesis contaminant mass, Mean” value in data set [5] (setting [6]) amounted to 543 ng sample^−1.
Consider `Brc1ccc(Oc2ccc(Br)cc2Br)c(Br)c1` [BDE-47], for which the “Prosthesis contaminant mass, Mean” value in data set [5] (setting [6]) came to 1.6 ng sample^−1.
In the case of `Brc1cc(Br)c(Oc2cc(Br)c(Br)cc2Br)c(Br)c1` [BDE-154], in data set [5] (setting [6]), the “Prosthesis contaminant mass, Mean” value is on record as 0.5 ng sample^−1.
Turning to `Clc1ccc(Cl)c(-c2cc(Cl)ccc2Cl)c1` [CB-52], the “Klip-sil” value in data set [2] was 19.2 g/g.
In the case of `Brc1ccc(Oc2ccc(Br)cc2Br)cc1` [BDE-28], in data set [5] (setting [6]), the “Prosthesis contaminant mass, Mean” value is given as 0.5 ng sample^−1.
In the case of `Clc1ccc(-c2cc(Cl)c(Cl)c(Cl)c2Cl)cc1Cl` [CB-156], the “Estimated Clipid” value in data set [1] is 4.5 ng/g. For the same molecule, the “Klip-sil” value in data set [2] was 50.8 g/g. Besides, in data set [4], the “Measured Cmilk” value is 3.2 (1.5-5.9)^f ng g^−1 lipid. Besides, the “Prosthesis contaminant mass, Mean” value in data set [5] (setting [6]) was 15 ng sample^−1.

The values are drawn from patent publication US9408866B2, “Method for detoxification or measurement of at least one compound or at least one fluid in a host body” (NIVA, priority 2012, dated 2016).
